Data on 9 molecules can be found in ChEMBL document CHEMBL4765492, “Discovery of GLPG2451, a Novel Once Daily Potentiator for the Treatment of Cystic Fibrosis” (J Med Chem, 2021).

≈ marks a conversion by molar mass, not a printed value. Calls of active or inactive are those of the source. The calls are words filed in the database; no cut-off is given here. A value given as a limit tells only on which side of the number the result lay.

Broadly, the EC50 is the concentration giving half of the maximal effect. For orientation: efflux ratio means the permeability from basolateral to apical divided by that in the opposite direction, in the common usage. Broadly, the AUC is the area under the concentration-time curve, a measure of exposure. A lower AUC goes with less exposure. As usually defined, the clearance is a measure of how efficiently the substance is removed, as volume per time. Read a high clearance as a high capacity for elimination. For orientation: half-life means the time in which the quantity being followed falls by half.

Series [1] is described as follows: Unbound intrinsic clearance in rat liver microsomes. The format is ADME, Microsome.
The target of series [2] is Cystic fibrosis transmembrane conductance regulator (Homo sapiens, UniProt P13569, F508DEL). Kind of series: Potentiation of CFTR F508del mutant (unknown origin) expressed in human CFBE41o- cells co-expressing YFP incubated for 10 mins by halide potentiator assay. The format is cell-based.
The test system of series [3] is Cystic fibrosis transmembrane conductance regulator (Homo sapiens), P13569 [G551D]. The series is described as follows: Potentiation of CFTR G551D mutant (unknown origin) expressed in human HEK293 cells co-expressing YFP incubated for 10 mins by halide potentiator assay relative to control. Type of series: cell-based. The note with it: filed as activator.
The subject of series [4] is Cystic fibrosis transmembrane conductance regulator (Homo sapiens), P13569 [F508del,G551D]. The series is described as follows: Potentiation of CFTR F508del/G551D mutant in human HBE cells assessed as increase in channel current at 10 nM to 1000 nM incubated for 20 mins by Ussing chamber assay. Type of series: cell-based. The note with it: Primary bronchial epithelial cell, filed as activator.

Series [5] in a line: Permeability of compound across apical to basolateral membrane in MDCK cells. The note with it: dog, read-out: permeability. Type of series: ADME, cell-based, Canis lupus familiaris.
Series [6] in a line: Permeability efflux ratio in MDCK cells. Type of series: ADME, cell-based, Canis lupus familiaris. The note with it: dog.
Series [7] in a line: Unbound intrinsic clearance in rat hepatocytes. The format is ADME, cell-based, Hepatocyte.
A short description of series [8]: AUC in rat at 5 mg/kg, po. The note with it: in vivo. Type of series: ADME, organism-based. The arrangement: dose 5 mg/kg.
Series [9] in a line: Genotoxicity in Salmonella typhimurium. Type of series: toxicity. The note with it: salmonella enterica subsp. enterica serovar typhimurium.
Series [10] can be described thus: Inhibition of CYP450 (unknown origin). The format is ADME. Particulars: human.
The nature of series [11]: Kinetic aqueous solubility of the compound at pH 7.4. The format is physicochemical. The note with it: buffer, read-out: Kinetic_solubility.
Series [12] has as its target T1, Nuclear receptor subfamily 1 group I member 2 (Homo sapiens, UniProt O75469).
T1 sequence (O75469 whole entry): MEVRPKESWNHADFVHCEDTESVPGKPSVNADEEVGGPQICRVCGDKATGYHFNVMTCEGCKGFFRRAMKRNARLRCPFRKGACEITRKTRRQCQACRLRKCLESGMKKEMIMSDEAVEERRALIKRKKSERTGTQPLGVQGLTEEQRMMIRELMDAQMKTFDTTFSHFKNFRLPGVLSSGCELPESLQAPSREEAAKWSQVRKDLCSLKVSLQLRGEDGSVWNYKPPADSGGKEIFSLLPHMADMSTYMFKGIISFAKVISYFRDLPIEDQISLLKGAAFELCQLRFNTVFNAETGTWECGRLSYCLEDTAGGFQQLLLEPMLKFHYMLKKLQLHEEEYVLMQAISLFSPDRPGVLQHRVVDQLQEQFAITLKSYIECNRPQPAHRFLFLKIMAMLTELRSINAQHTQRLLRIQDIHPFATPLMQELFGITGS
The series is described as follows: Activation of PXR (unknown origin) at 10 uM by CYP450 induction assay relative to rifampicin. The format is ADME.

Series [13] in a line: Clearance in Sprague-Dawley rat at 1 mg/kg, iv. The format is ADME, organism-based. Particulars: in vivo.
Series [14] is described as follows: Unbound clearance in Sprague-Dawley rat at 1 mg/kg, iv. Particulars: in vivo. Type of series: ADME, organism-based.
Series [15] can be described thus: Volume of distribution at steady state in Sprague-Dawley rat at 1 mg/kg, iv. Type of series: ADME, organism-based. The note with it: in vivo, read-out: Vdss.
A short description of series [16]: Half life in Sprague-Dawley rat at 1 mg/kg, iv. Particulars: in vivo. Type of series: ADME, organism-based.
Series [17] is described as follows: Unbound intrinsic clearance in human liver microsomes. Type of series: ADME, Microsome.

Cystic fibrosis transmembrane conductance regulator, sequence (P13569 as listed by the source): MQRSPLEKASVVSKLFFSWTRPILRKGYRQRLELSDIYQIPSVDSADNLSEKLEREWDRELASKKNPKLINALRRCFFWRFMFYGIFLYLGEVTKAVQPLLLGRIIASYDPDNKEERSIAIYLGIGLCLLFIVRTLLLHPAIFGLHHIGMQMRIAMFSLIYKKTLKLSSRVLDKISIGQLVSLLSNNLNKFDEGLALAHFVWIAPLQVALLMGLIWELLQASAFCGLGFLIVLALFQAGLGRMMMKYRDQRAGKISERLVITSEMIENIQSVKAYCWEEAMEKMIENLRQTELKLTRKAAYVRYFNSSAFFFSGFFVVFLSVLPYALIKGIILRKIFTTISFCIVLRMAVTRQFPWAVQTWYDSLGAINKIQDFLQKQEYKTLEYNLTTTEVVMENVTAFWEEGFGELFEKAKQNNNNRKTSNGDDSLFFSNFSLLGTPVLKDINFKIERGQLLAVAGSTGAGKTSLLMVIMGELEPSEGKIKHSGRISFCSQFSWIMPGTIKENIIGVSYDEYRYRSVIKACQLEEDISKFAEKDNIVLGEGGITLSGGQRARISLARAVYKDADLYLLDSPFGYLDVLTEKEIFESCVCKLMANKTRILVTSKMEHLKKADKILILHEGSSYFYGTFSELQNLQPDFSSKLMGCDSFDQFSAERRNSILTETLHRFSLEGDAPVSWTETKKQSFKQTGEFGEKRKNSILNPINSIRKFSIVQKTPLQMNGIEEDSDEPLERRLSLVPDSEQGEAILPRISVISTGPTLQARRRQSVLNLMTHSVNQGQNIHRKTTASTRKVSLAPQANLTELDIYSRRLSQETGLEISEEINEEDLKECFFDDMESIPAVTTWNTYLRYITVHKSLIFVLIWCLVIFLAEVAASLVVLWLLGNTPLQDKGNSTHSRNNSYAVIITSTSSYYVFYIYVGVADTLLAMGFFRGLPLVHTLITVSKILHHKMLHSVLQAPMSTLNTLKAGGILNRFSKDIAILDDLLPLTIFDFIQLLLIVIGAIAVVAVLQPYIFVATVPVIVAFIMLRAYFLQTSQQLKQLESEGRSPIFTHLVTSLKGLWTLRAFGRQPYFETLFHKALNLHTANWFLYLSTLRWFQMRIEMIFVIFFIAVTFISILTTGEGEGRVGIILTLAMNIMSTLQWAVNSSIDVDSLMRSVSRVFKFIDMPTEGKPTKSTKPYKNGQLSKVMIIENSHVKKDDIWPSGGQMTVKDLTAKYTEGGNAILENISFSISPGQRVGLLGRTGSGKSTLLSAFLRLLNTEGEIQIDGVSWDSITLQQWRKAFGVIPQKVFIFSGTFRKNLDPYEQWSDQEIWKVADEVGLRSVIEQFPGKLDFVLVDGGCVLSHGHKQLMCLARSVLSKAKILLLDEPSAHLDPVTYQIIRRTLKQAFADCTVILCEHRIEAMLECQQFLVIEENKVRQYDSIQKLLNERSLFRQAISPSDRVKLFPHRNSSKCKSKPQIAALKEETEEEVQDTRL
Cystic fibrosis transmembrane conductance regulator (Homo sapiens), P13569 [G551D], sequence (P13569 whole entry G551D): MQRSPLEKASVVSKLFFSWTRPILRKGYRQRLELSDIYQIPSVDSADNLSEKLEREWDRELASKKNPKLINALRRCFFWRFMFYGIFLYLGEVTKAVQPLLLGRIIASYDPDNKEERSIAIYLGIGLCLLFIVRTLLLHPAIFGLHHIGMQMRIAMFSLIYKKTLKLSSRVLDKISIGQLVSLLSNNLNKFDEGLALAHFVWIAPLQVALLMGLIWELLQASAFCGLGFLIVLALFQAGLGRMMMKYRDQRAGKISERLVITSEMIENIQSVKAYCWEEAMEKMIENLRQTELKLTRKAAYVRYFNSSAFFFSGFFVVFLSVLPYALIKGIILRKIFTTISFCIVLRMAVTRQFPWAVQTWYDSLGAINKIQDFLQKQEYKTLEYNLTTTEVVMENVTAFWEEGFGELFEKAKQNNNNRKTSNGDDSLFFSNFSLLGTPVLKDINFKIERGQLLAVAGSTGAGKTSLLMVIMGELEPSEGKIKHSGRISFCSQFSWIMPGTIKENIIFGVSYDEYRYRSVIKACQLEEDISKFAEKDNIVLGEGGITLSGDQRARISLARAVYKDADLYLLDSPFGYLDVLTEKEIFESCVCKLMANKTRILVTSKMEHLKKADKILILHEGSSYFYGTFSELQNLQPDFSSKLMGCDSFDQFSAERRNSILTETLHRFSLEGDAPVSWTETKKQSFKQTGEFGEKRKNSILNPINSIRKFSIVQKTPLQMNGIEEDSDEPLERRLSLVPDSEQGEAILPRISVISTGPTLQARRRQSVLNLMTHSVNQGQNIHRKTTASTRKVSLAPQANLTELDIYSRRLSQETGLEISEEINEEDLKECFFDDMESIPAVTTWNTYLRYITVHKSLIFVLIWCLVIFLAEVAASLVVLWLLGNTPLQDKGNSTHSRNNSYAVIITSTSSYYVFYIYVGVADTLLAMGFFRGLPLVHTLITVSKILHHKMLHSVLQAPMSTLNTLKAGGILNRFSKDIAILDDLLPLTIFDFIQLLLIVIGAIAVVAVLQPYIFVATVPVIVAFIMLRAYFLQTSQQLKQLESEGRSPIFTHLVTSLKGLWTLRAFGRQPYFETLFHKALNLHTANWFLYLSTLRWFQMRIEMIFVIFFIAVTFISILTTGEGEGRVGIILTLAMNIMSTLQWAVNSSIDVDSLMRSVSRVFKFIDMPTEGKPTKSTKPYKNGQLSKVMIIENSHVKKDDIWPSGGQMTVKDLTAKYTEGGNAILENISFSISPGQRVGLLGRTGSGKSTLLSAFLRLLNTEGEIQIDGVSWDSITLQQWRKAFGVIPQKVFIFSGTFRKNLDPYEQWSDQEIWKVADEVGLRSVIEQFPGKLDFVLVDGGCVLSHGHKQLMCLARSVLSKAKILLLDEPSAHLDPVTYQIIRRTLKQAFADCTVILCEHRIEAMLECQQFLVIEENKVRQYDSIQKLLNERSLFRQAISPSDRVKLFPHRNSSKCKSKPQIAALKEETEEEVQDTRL
Cystic fibrosis transmembrane conductance regulator (Homo sapiens), P13569 [F508del,G551D], sequence (P13569 as listed by the source): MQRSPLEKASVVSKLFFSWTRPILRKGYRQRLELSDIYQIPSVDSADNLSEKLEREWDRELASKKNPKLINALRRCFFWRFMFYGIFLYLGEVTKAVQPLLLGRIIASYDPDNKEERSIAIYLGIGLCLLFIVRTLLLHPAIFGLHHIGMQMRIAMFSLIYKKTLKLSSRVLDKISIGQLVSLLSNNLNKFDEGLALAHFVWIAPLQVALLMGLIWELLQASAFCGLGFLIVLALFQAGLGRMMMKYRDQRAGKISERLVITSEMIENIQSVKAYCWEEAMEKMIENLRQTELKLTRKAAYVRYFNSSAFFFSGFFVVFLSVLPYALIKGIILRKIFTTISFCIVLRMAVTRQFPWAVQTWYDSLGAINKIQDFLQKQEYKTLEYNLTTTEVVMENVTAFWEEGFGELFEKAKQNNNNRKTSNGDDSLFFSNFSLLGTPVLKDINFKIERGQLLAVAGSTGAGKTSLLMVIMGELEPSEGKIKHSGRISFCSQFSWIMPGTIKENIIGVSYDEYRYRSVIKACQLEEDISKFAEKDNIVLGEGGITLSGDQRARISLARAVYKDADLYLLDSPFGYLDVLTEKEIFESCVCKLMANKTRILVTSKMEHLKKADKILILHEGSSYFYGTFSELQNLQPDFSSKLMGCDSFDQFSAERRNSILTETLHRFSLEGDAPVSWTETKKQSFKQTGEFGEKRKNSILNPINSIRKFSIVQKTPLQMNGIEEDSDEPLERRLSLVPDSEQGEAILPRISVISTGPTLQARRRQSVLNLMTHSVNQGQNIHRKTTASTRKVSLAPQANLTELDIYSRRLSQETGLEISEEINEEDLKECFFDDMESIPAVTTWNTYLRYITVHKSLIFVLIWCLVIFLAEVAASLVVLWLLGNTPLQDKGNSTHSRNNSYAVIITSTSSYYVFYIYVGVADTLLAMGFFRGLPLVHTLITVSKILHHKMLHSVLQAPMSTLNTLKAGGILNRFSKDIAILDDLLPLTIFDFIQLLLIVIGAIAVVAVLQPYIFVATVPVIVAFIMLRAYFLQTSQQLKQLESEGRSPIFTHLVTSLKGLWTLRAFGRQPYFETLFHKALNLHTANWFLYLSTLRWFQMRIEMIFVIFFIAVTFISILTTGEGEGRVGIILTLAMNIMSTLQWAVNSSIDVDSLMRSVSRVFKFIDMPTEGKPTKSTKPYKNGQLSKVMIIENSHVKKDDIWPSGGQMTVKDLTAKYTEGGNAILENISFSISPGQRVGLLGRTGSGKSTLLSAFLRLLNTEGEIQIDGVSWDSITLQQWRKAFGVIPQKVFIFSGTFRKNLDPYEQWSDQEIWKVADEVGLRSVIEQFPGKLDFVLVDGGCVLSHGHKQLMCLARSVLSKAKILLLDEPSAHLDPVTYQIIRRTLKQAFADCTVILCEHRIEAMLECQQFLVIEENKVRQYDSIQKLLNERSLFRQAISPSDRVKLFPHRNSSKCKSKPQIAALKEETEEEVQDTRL

For the molecule `CN(Cc1ccccc1)S(=O)(=O)c1cc(C(N)=O)c(NC(=O)c2ccn[nH]2)s1`, the CL free in series [1] is 1880 mL/min/kg. In addition, in series [2], the EC50 was 17 nM. Also, in series [3], the Activity was 115%. For the same molecule, in series [4], the outcome was Active. Besides, the Papp A→B in series [5] stood at 0.65 ×10⁻⁶ cm/s. Also, the efflux ratio in series [6] amounted to 47.
For the molecule `Nc1cc(S(=O)(=O)c2ccc(F)cc2)cnc1C(=O)N1CC(O)(C(F)(F)F)C1`, the CL free in [1] came out at 28.3 mL/min/kg. For the same molecule, the 50% effective concentration (EC50) in series [2] was 1.1 nM.
Molecule `NC(=O)c1cc(S(=O)(=O)N2CCCCC2)sc1NC(=O)c1ccn[nH]1` had a CL free in series [1] of 250 mL/min/kg. For the same molecule, the EC50 in series [2] amounted to 13 nM. Moreover, the Papp A→B in [5] is 0.5 ×10⁻⁶ cm/s. Also, the efflux ratio in series [6] stood at 40.
On to `CN(C[C@@H](O)C(F)(F)F)C(=O)c1ncc(S(=O)(=O)c2ccc(F)cc2)cc1N`, for which the EC50 in series [2] was over 2000 nM.
Turning to `NC(=O)c1cc(S(=O)(=O)c2ccc(F)cc2)sc1NC(=O)C1(O)CC1`, the CL free in series [1] worked out at 76.7 mL/min/kg; in [7], 107 mL/min/kg. Also, the EC50 in [2] came to 79 nM. Besides, the Papp A→B in [5] turned out to be 1 ×10⁻⁶ cm/s. Moreover, the efflux ratio in series [6] was 137. The AUC in series [8] was 500 ng·h/mL.
Take `CC(C)(O)CNC(=O)c1ncc(S(=O)(=O)c2ccc(OC(F)(F)F)cc2)cc1N`: the CL free in series [1] worked out at 93.3 mL/min/kg. The EC50 in series [2] came to 33 nM. Moreover, the Activity entry in series [9] is recorded as “Non-Toxic”; in series [12] it was 41%. Moreover, the “inhibition (INH)” value in [10] is given as “Not Active”. Further, the solubility kinetic in [11] came to 37 µM (≈ 16 µg/mL).
Molecule `Nc1cc(S(=O)(=O)c2ccc(OC(F)(F)F)cc2)cnc1C(=O)NCC1(O)CC1` had a CL free in series [1] of 93.3 mL/min/kg. Further, the EC50 in series [2] amounted to 2.8 nM.
`Nc1cc(S(=O)(=O)N2CCC(OC(F)(F)F)CC2)cnc1C(=O)NCC(O)C(F)(F)F` (stereo unspecified): the figures for the CL free in [1], in [14] and in [17] were 300 mL/min/kg, 317 mL/min/kg and 130 mL/min/kg, respectively. Further, the concentration for a half-maximal effect (EC50) in series [2] amounted to 5 nM. In [13], this molecule had a clearance of 31.7 mL/min/kg. Also, the Vd in series [15] was 3.2 L/kg. In series [16], this molecule showed a half-life of 1.3 h.
`CC(C)(C)C(=O)Nc1sc(S(=O)(=O)c2ccc(F)cc2)cc1C(N)=O`: in series [1], the CL free turned out to be 105 mL/min/kg. In series [2], the EC50 was determined as 352 nM.
